# pKi: −log10 of the molar value.
# Biological target: Mcl-1 protein (UniProtKB Q07820) (Homo sapiens (Human), UniProt Q07820)
# Experiment: Inhibition of Mcl-1 by the fluorescence polarisation assay (Example A, Method A)
# Type: binding
# Conditions: fluorescence polarization assay
# In short: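 Protein (5 nM) and fluorescein-tagged peptide tracer (1 nM) incubated with 11-point compound series for 2 h at room temperature in HEPES/NaCl/Tween 20 buffer, pH 7.4, 5% DMSO. Displacement read as decrease in polarisation; IC50 fitted by 4-parameter logistic, converted to Ki (cKi or eKi).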
# Mcl-1 protein, sequence (Q07820 whole entry): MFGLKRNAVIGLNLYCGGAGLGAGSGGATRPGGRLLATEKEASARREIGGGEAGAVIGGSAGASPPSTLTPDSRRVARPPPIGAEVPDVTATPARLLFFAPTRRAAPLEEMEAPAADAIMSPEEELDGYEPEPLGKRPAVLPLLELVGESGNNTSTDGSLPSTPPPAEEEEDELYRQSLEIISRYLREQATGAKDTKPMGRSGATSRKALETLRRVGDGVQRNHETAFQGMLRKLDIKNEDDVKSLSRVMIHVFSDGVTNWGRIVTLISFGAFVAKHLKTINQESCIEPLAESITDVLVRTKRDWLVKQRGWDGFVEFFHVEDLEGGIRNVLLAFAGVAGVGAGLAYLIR
row,Compound,pKi
1,"O=C(O)C1(Nc2cccc(Cl)c2)CCC2(CC1)c1ccccc1CC2c1ccc(OCc2cccnc2)cc1 (stereo not shown) [Example 368, (1r,4r)-4-(3-chloroanilino)-2′-{4-[(pyridin-3-yl)methoxy]phenyl}-2′,3′-dihydrospiro[cyclohexane-1,1′-indene]-4-carboxylic acid]",5.88
2,"COc1cc(C)cc(C2=Cc3ccccc3[C@]23CC[C@@](Nc2cccc(Cl)c2)(C(=O)O)CC3)c1 [Example 310, (1s,4s)-4-(3-chloroanilino)-2′-(3-methoxy-5-methylphenyl)spiro[cyclohexane-1,1′-indene]-4-carboxylic acid]",6.14
3,"O=C(O)[C@]1(Nc2cccc(Cl)c2)CC[C@@]2(CC1)c1ccccc1CC2c1ccc(OCc2ccccc2)cc1 (single isomer, unassigned) [Example 352, (1r,4r)-2′-[4-(benzyloxy)phenyl]-4-(3-chloroanilino)-2′,3′-dihydrospiro[cyclohexane-1,1′-indene]-4-carboxylic acid]",6.10
4,"O=c1ccn(CCCC2Cc3ccccc3[C@]23CC[C@@](Nc2cccc(Cl)c2)(C(=O)O)CC3)cc1 (stereo partly shown) [Example 167, (1r,4r)-4-(3-chloroanilino)-2′-[3-(4-oxopyridin-1 (4H)-yl)propyl]-2′,3′-dihydrospiro[cyclohexane-1,1′-indene]-4-carboxylic acid]",4.49
5,"O=C(O)[C@]1(Nc2cccc(Br)c2)CC[C@@]2(CC1)c1ccccc1CC2CCc1ccccn1 (stereo partly shown) [Example 175, (1r,4r)-4-(3-bromoanilino)-2′-[2-(pyridin-2-yl)ethyl]-2′,3′-dihydrospiro[cyclohexane-1,1′-indene]-4-carboxylic acid]",5.81
6,"COc1cccc(C)c1C1Cc2ccccc2[C@]12CC[C@@](Nc1cccc(Cl)c1)(C(=O)O)CC2 (mixture of isomers) [Example 286, (1r,4r)-4-(3-chloroanilino)-2′-(2-methoxy-6-methylphenyl)-2′,3′-dihydrospiro[cyclohexane-1,1′-indene]-4-carboxylic acid]",5.24
7,"COc1ccc(C2Cc3ccccc3[C@]23CC[C@@](Nc2cccc(Cl)c2)(C(=O)O)CC3)c(Cl)c1 (single isomer, unassigned) [Example 268, (1r,4r)-4-(3-chloroanilino)-2′-(2-chloro-4-methoxyphenyl)-2′,3′-dihydrospiro[cyclohexane-1,1′-indene]-4-carboxylic acid]",5.99
8,"O=C(O)[C@]1(Nc2cccc(Cl)c2)CC[C@]2(CC1)C(c1cccc(Cc3ccccc3)c1)=Cc1ccccc12 [Example 301, (1s,4s)-2′-(3-benzylphenyl)-4-(3-chloroanilino)spiro[cyclohexane-1,1′-indene]-4-carboxylic acid]",6.31
9,"CC1=Cc2cccc(C)c2C12CCC(Nc1cccc(Br)c1)(C(=O)O)CC2 (stereo not shown) [Example 125, 4-(3-bromoanilino)-2′,7′-dimethylspiro[cyclohexane-1,1′-indene]-4-carboxylic acid]",5.12
10,"O=C(O)[C@]1(Nc2cccc(Cl)c2)CC[C@@]2(CC1)c1ccccc1CC2[C@H]1C[C@@H]1COc1cccnc1 (single isomer, unassigned) [Example 114, (1r,4r)-4-(3-chloroanilino)-2′-[(1R*,2S*)-2-{[(pyridin-3-yl)oxy]methyl}cyclopropyl]-2′,3′-dihydrospiro[cyclohexane-1,1′-indene]-4-carboxylic acid]",4.56
11,"O=C(O)[C@]1(Nc2cccc(Cl)c2)CC[C@]2(CC1)C(c1cc3c(-c4ccncc4)cccc3o1)=Cc1ccccc12 [Example 361, (1s,4s)-4-(3-chloroanilino)-2′-[4-(pyridin-4-yl)-1-benzofuran-2-yl]spiro[cyclohexane-1,1′-indene]-4-carboxylic acid]",4.83
12,"Cn1ccc2cc(C3=Cc4ccccc4[C@]34CC[C@@](Nc3cccc(Cl)c3)(C(=O)O)CC4)ccc21 [Example 264, (1s,4s)-4-(3-chloroanilino)-2′-(1-methyl-1H-indol-5-yl)spiro[cyclohexane-1,1′-indene]-4-carboxylic acid]",5.76
13,"CC1=C(C)[C@]2(CC[C@@](Nc3cccc(Br)c3)(C(=O)O)CC2)c2ccccc21 [Example 203, (1s,4s)-4-(3-bromoanilino)-2′,3′-dimethylspiro[cyclohexane-1,1′-indene]-4-carboxylic acid]",4.40
14,"Cc1cc(Br)cc2c1N(C)C(=O)[C@]21CC[C@@](Nc2cccc(Br)c2)(C(=O)O)CC1 [Example 20, (1r,4r)-5′-bromo-4-(3-bromoanilino)-1′,7′-dimethyl-2′-oxo-1′,2′-dihydrospiro[cyclohexane-1,3′-indole]-4-carboxylic acid]",4.59

# The next compounds have a higher pKi than those just listed; values first:
row,pKi,Compound
1,6.74,"O=C(O)[C@]1(Nc2cccc(Cl)c2)CC[C@@]2(CC1)c1ccccc1CC2CCCOc1cccc2c1CCN2 (stereo partly shown) [Example 470, (1r,4r)-4-(3-chloroanilino)-2′-{3-[(2,3-dihydro-1H-indol-4-yl)oxy]propyl}-2′,3′-dihydrospiro[cyclohexane-1,1′-indene]-4-carboxylic acid]"
2,7.13,"O=C(O)[C@]1(Nc2cccc(Cl)c2)CC[C@@]2(CC1)c1ccccc1CC2CCOc1cccc2[nH]ccc12 (stereo partly shown) [Example 185, (1r,4r)-4-(3-chloroanilino)-2′-{2-[(1H-indol-4-yl)oxy]ethyl}-2′,3′-dihydrospiro[cyclohexane-1,1′-indene]-4-carboxylic acid]"
3,7.00,"COCCOc1ccc2c(c1)[C@]1(CC2)CC[C@](Nc2cccc(Br)c2)(C(=O)O)CC1 [Example 67, (1r,4s)-4-(3-bromoanilino)-6′-(2-methoxyethoxy)-2′,3′-dihydrospiro[cyclohexane-1,1′-indene]-4-carboxylic acid]"
4,6.59,"CCCC1Cc2ccccc2[C@]12CC[C@@](Nc1cccc(Br)c1)(C(=O)O)CC2 (stereo partly shown) [Example 148, (1r,4r)-4-(3-bromoanilino)-2′-propyl-2′,3′-dihydrospiro[cyclohexane-1,1′-indene]-4-carboxylic acid]"
5,6.78,"Nc1cc(Cl)c(OCCCC2Cc3ccccc3[C@]23CC[C@@](Nc2cccc(Cl)c2)(C(=O)O)CC3)c(Cl)c1 (stereo partly shown) [Example 429, (1r,4r)-2′-[3-(4-amino-2,6-dichlorophenoxy)propyl]-4-(3-chloroanilino)-2′,3′-dihydrospiro[cyclohexane-1,1′-indene]-4-carboxylic acid]"
6,6.58,"O=C(O)[C@]1(Nc2cccc(Cl)c2)CC[C@]2(CC1)C(Br)=Cc1ccc(F)cc12 [Example 139, (1s,4s)-2′-bromo-4-(3-chloroanilino)-6′-fluorospiro[cyclohexane-1,1′-indene]-4-carboxylic acid]"
7,6.42,"COc1ccc(C2Cc3ccccc3C23CCC(Nc2cccc(Cl)c2)(C(=O)O)CC3)cc1Cl (stereo not shown) [Example 279, (1r,4r)-4-(3-chloroanilino)-2′-(3-chloro-4-methoxyphenyl)-2′,3′-dihydrospiro[cyclohexane-1,1′-indene]-4-carboxylic acid]"
8,6.69,"COc1cncnc1OCCCC1Cc2ccccc2[C@]12CC[C@@](Nc1cccc(Cl)c1)(C(=O)O)CC2 (stereo partly shown) [Example 438, (1r,4r)-4-(3-chloroanilino)-2′-{3-[(5-methoxypyrimidin-4-yl)oxy]propyl}-2′,3′-dihydrospiro[cyclohexane-1,1′-indene]-4-carboxylic acid]"

# Source: US20240150293A1, “SPIROCYCLOHEXANE DERIVATIVES, PHARMACEUTICAL COMPOSITIONS CONTAINING THEM AND THEIR USES AS ANTI-APOPTOTIC INHIBITORS” (LES LABORATOIRES SERVIER, priority 2021, published 2024)
